The source of these data is ChEMBL document CHEMBL2375297, “Coumarins hinged directly on benzimidazoles and their ribofuranosides to inhibit hepatitis C virus” (Eur J Med Chem, 2013).

Data set [1] is described as follows: Cytostatic activity against human Huh5-2 cells after 3 days by MTS method. The class given is cell-based, Huh-5-2. (Tetrazolium assays rely on reduction of a dye to a coloured formazan, in cell work by metabolically active cells.)
The nature of data set [2]: Selectivity index, ratio of CC50 for human Huh5-2 cells to EC50 for Hepatitis C virus genotype 1b infected in human Huh5-2 cells. The class given is toxicity, cell-based, Huh-5-2. Particulars: read-out: Ratio CC50/EC50.
Another data set has as its system Hepatitis C virus. Description: Antiviral activity against Hepatitis C virus genotype 1b infected in human Huh5-2 cells assessed as luciferase activity after 4 days by Steady-Glo luciferase assay. The class given is functional, organism-based, Hepacivirus hominis. Particulars: Huh-5-2, 96 h.

As to `O=C(O)c1ccc2[nH]c(-c3cc4cc([N+](=O)[O-])ccc4oc3=O)nc2c1`, the CC50 (commonly the concentration giving 50% cytotoxicity) at 72 h in data set [1] is 10 µM. The selectivity ratio in data set [2] came to 1.5. The EC50 (as a rule, the concentration at which the effect is half-maximal) with Hepatitis C virus was found to be 6.9 µM.
For `Cc1c(-c2nc3ccccc3n2[C@@H]2O[C@H](CO)[C@@H](O)[C@H]2O)c(=O)oc2ccccc12` the same measures were 122 µM, 1.1 and 110 µM.
For `Cc1cc2nc(-c3cc4cc(Br)ccc4oc3=O)[nH]c2cc1C`, in that order: 172 µM, 4.3 and 40 µM.
Consider `COc1cccc2cc(-c3nc4ccc(C)cc4[nH]3)c(=O)oc12`, for which, in data set [1], the CC50 at 72 h amounted to 12 µM. For the same compound, the selectivity ratio in data set [2] was found to be 1. For the same compound, the EC50 in the data set on Hepatitis C virus was determined as 12 µM.
In data set [1], `CC(=O)Oc1ccc2c(C)c(-c3nc4ccccc4[nH]3)c(=O)oc2c1` showed a CC50 at 72 h of 153 µM. The selectivity ratio in data set [2] amounted to 1. In the data set with Hepatitis C virus, the EC50 was determined as 153 µM.
`O=C(O)c1ccc2[nH]c(-c3cc4ccc(I)cc4oc3=O)nc2c1`: in data set [1], the midpoint of cytotoxicity, the CC50 at 72 h, lay at 118 µM. The selectivity ratio in data set [2] stood at 1. Moreover, the EC50 with Hepatitis C virus was found to be 118 µM.
The compound `Cc1c(-c2nc3cc(F)ccc3[nH]2)c(=O)oc2ccccc12` had a CC50 at 72 h in data set [1] of 170 µM. In addition, the selectivity ratio in data set [2] was found to be 2.2. In the data set on Hepatitis C virus, the concentration for a half-maximal effect (EC50) was 79 µM.
In turn, `Cc1cc2nc(-c3c(C)c4ccccc4oc3=O)[nH]c2cc1C` displayed a CC50 at 72 h in data set [1] of 77 µM. Besides, in data set [2], the selectivity ratio is 2. In addition, the EC50 in the data set with Hepatitis C virus was 40 µM.
The compound `O=c1oc2ccccc2cc1-c1nc2cc(F)ccc2[nH]1` showed a CC50 at 72 h in data set [1] of 13 µM. In addition, the selectivity ratio in data set [2] is 0.15. Moreover, in the data set on Hepatitis C virus, the EC50 stood at 84 µM.
On to `COc1cccc2cc(-c3nc4cccnc4[nH]3)c(=O)oc12`, for which the CC50 at 72 h in data set [1] is 170 µM. The selectivity ratio in data set [2] is 2. Further, in the data set on Hepatitis C virus, the half-maximal effective concentration (EC50) was determined as 84 µM.
For `Cc1cc2nc(-c3cc4ccccc4oc3=O)[nH]c2cc1C`, in that order: 23 µM, 7.9 and 3 µM.
Compound `O=c1oc2ccccc2cc1-c1nc2ccccc2n1[C@@H]1O[C@H](CO)[C@@H](O)[C@H]1O` gave a CC50 at 72 h in data set [1] of 127 µM. In addition, the selectivity ratio in data set [2] was determined as 6.4. For the same compound, the EC50 in the data set on Hepatitis C virus was 20 µM.
For `Cc1c(-c2nc3ccccc3[nH]2)c(=O)oc2ccccc12` the same measures were 27 µM, 0.66 and 40 µM.
For `Cc1ccc2[nH]c(-c3cc4c(ccc5ccccc54)oc3=O)nc2c1`, in that order: 77 µM, 14 and 5.5 µM.
For `Cc1ccc2[nH]c(-c3c(C)c4ccccc4oc3=O)nc2c1` the same measures were 29 µM, 1 and 28 µM.
Consider `CC(=O)OC[C@H]1O[C@@H](n2c(-c3cc4ccccc4oc3=O)nc3ccccc32)[C@H](OC(C)=O)[C@@H]1OC(C)=O`, for which the CC50 at 72 h in data set [1] amounted to 98 µM. Also, in data set [2], the selectivity ratio worked out at 1.6. In the data set on Hepatitis C virus, the EC50 was 60 µM.
For `CC(=O)OC[C@H]1O[C@@H](n2c(-c3c(C)c4ccccc4oc3=O)nc3ccccc32)[C@H](OC(C)=O)[C@@H]1OC(C)=O`, in that order: 941 µM, 1 and 941 µM.
`Cc1ccc2[nH]c(-c3cc4ccccc4oc3=O)nc2c1` registered a CC50 at 72 h in data set [1] of 2.3 µM. The selectivity ratio in data set [2] is 1. For the same compound, the EC50 in the data set on Hepatitis C virus came out at 2.3 µM.
As to `O=c1oc2ccccc2cc1-c1nc2cc3ccccc3cc2[nH]1`, the 50% cytotoxic concentration (CC50) at 72 h in data set [1] was found to be 135 µM. Also, the selectivity ratio in data set [2] is 1.3. The EC50 in the data set with Hepatitis C virus was 105 µM.
For `O=C(O)c1ccc2[nH]c(-c3cc4ccccc4oc3=O)nc2c1`, the CC50 at 72 h in data set [1] was determined as 13 µM. Moreover, in data set [2], the selectivity ratio stood at 0.32. The EC50 with Hepatitis C virus was determined as 40 µM.
